Measurements as given in patent publication US6602888B2, “Use of α1C specific compounds to treat benign prostatic hyperplasia” (Synaptic Pharmaceutical Corporation, priority 1992, dated 2003).
Read-outs that look alike come from different tables or passages of the source.

Tests used:
[1] = target: T1, calcium channels (Rattus norvegicus, UniProt P22002); experiment: [3H]nitrendipine competition binding, calcium channels, rat cardiac muscle membranes; settings: for Ki: read-out: Calcium Channel (pK1) (converted)
T1 construct: from tissue; host or cells: rat cardiac muscle membranes
Method: Briefly, the tissue was minced and homogenized in 50 mM Tris-HCl (pH 7.4) containing 0.1 mM phenylmethylsulfonyl fluoride. The homogenates were centrifuged at 1000 g for 15 minutes, the resulting supernatant was centrifuged at 45,000 g for 15 minutes. The 45,000 g pellet was suspended in buffer and centrifuged a second time.

[2] = target: T2, human histamine H1 receptor (Homo sapiens, UniProt P35367); experiment: [3H]mepyramine binding, histamine H1 receptor; settings: for Ki: read-out: Histamine H1 (pK1) (converted)
T2 construct: host or cells: COS-7, transient, DEAE-dextran
Description: The coding sequence of the human histamine H1 receptor, homologous to the bovine H1 receptor, was obtained from a human hippocampal cDNA library, and was cloned into the eukaryotic expression vector pCEXV-3. The plasmid DNA for the H1 receptor is designated pcEXV-H1, and was deposited on Nov. […] This construct was transfected into COS-7 cells by the DEAE-dextran method.

[3] = system: human prostate tissue; experiment: Antagonism of phenylephrine-induced contraction of human prostatic tissue; settings: pA2, phenylephrine-induced contraction, dose-ratio method
Method: An index of this efficacy can be obtained by determining the potency of α1 antagonists to antagonize the contraction of human prostatic tissue induced by an α1 agonist “in vitro”.
Prostatic adenomas were obtained at the time of surgery from patients with symptomatic BPH. […] Isometric tension was measured with a Grass Instrument FT03 force transducer interfaced with a computer. Tissue strips were contracted with varying concentrations of phenylephrine after incubating for 20 minutes in the absence and presence of at least three different concentrations of antagonist. Dose-response curves for phenylephrine were constructed, and the antagonist potency (pA2) was estimated by the dose-ratio method.

[4] = target: T3, human α2B adrenergic receptor (Homo sapiens, UniProt P18089); experiment: Competition binding, [3H]rauwolscine, α2B receptor; settings: for Ki: read-out: Alpha-2 Adrenergic a2b (pK1) (converted)
T3 sequence (P18089 1-450): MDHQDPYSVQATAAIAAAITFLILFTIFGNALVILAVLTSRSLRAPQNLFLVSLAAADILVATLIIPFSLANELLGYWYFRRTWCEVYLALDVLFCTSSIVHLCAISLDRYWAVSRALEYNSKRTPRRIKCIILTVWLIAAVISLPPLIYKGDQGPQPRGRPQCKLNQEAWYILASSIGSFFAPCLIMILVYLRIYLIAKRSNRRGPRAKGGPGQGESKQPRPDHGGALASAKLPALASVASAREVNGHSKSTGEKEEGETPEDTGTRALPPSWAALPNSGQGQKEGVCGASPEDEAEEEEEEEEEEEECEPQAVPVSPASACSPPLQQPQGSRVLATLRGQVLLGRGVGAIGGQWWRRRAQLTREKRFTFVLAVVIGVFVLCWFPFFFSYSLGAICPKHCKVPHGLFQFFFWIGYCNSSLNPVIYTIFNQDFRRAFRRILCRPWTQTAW
Method: To determine the potency of α1 antagonists at the α2 receptors, LM(tk−) cell lines stably transfected with the genes encoding the α2A, α2B, and α2C receptors were used. The cell line expressing the α2A receptor is designated L-α2A, and was deposited on Nov. […] The cell line expressing the α2B receptor is designated L-NGC-α2B, and was deposited on Oct. […] The cell line expressing the α2C receptor is designated L-α2C, and was deposited on Nov. […] Cell lysates were prepared as described above (see Radioligand Binding Assays), and suspended in 25 mM glycylglycine buffer (pH 7.6 at room temperature).

[5] = target: T4, human 5HT1Dβ receptor (Homo sapiens, UniProt P28222); experiment: [3H]serotonin competition binding, 5HT1Dβ receptor
T4 construct: host or cells: LM(tk-) clonal cell line Ltk-11
Method: (§1) 5HT1Dα, 5HT1Dβ, 5HT1E, 5HT1F Receptors: The cell lysates of LM(tk−) clonal cell line stably transfected with the genes encoding each of these 5HT receptor-subtypes were prepared as described above. The cell line for the 5HT1Dα receptor, designated as Ltk-8-30-84, was deposited on Apr. […] The cell for the 5HT1Dβ receptor, designated as Ltk-11, was deposited on Apr. […] The cell line for the 5HT1E receptor, designated 5 HT1E-7, was deposited on Nov. […] The cell line for the 5HT1F receptor, designated L-5-HT1F, was deposited on Dec. […] These preparations were suspended in 50 mM Tris-HCl buffer (pH 7.4 at 37° C.) containing 10 mM MgCl2, 0.2 mM EDTA, 10 μM pargyline, and 0.1% ascorbate.

[6] = target: T5, human 5HT1Dα receptor (Homo sapiens, UniProt P28221); experiment: [3H]serotonin competition binding, 5HT1Dα receptor
T5 construct: host or cells: LM(tk-) clonal cell line Ltk-8-30-84
Method: as §1

[7] = target: T6, human α1C adrenergic receptor (Homo sapiens, UniProt P35348); experiment: Radioligand binding, [3H]prazosin, cloned human α1C adrenergic receptor
T6 construct: The entire coding region of α1C (1401 bp); expressed in transfected cells
T6 sequence (P35348 1-466): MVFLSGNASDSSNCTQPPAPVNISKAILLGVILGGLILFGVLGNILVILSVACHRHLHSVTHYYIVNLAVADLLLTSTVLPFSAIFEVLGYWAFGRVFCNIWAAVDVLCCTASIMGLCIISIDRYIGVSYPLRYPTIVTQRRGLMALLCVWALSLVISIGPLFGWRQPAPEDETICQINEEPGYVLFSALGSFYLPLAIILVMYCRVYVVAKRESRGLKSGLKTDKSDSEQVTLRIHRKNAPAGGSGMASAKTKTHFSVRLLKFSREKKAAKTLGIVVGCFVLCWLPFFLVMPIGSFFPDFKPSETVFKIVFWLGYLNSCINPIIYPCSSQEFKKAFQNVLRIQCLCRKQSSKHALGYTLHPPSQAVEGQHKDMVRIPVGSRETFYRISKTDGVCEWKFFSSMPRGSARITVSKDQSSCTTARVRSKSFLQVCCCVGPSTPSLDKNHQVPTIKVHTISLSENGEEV
Description: The construct involved ligating three partial overlapping fragments: a 5′ 0.6 kb HincII genomic clone, a central 1.8 EcoRI hippocampal cDNA clone, and a 3′ 0.6 Kb PstI genomic clone. The hippocampal cDNA fragment overlaps with the 5′ and 3′ genomic clones so that the HincII and PstI sites at the 5′ and 3′ ends of the cDNA clone, respectively, were utilized for ligation. This full-length clone was cloned into the KpnI site of the expression vector, using the 5′ and 3′ KpnI sites of the fragment, derived from vector (i.e., pBluescript) and 3′-untranslated sequences, respectively. Stable cell lines were selected as described above.

[8] = target: T7, human D2 receptor (Homo sapiens, UniProt P14416); experiment: [3H]spiperone binding, dopamine D2 receptor; settings: for Ki: read-out: Dopamine D2 (pK1)
T7 construct: host or cells: COS-7, transient, DEAE-dextran
Method: The potency of α1 antagonists at the D2 receptor was determined using membrane preparations from COS-7 cells transfected with the gene encoding the human D2 receptor. The coding region for the human D2 receptor was obtained from a human striatum cDNA library, and cloned into the cloning site of PCDNA 1 eukariotic expression vector. The plasmid DNA for the D2 receptor is designated pcEXV-D2, and was deposited on Nov. […] This construct was transfected into COS-7 cells by the DEAE-dextran method. […] The cell lysates were incubated with [3H]spiperone (2 nM), using 10 μM (+)Butaclamol to determine nonspecific binding.

[9] = Table 2, rat cardiac muscle membranes
[10] = Table 2, cloned human receptor, read-out: Serotonin 5HT1Db (pK1)
[11] = Table 2, cloned human receptor, read-out: Serotonin 5HT1Da (pK1)

T2 sequence (P35367 whole entry): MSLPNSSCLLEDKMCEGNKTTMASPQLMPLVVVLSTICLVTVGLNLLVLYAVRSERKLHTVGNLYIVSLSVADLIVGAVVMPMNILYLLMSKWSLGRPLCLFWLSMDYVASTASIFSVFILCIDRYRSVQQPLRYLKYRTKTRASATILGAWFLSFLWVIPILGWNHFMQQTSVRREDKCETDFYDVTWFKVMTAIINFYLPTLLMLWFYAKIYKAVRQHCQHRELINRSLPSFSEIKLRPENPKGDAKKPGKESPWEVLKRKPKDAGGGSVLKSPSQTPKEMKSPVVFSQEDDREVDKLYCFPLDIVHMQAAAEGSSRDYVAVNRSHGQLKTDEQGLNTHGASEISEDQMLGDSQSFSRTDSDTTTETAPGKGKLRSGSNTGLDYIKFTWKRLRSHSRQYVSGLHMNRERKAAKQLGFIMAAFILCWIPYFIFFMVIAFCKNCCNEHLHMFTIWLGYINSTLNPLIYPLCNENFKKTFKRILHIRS
T7 sequence (P14416 whole entry): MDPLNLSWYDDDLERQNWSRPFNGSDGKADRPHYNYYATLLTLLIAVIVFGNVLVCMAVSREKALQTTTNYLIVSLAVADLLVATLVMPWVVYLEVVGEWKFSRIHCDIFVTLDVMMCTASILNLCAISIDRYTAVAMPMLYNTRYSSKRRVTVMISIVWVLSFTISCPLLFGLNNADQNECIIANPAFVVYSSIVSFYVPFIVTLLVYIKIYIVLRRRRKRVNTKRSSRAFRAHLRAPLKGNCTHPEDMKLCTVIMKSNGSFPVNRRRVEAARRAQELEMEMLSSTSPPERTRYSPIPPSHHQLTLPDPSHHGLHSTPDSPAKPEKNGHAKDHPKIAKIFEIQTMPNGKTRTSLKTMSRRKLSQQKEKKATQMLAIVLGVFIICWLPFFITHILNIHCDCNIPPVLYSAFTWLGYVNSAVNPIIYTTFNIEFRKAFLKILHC
T4 sequence (P28222 whole entry): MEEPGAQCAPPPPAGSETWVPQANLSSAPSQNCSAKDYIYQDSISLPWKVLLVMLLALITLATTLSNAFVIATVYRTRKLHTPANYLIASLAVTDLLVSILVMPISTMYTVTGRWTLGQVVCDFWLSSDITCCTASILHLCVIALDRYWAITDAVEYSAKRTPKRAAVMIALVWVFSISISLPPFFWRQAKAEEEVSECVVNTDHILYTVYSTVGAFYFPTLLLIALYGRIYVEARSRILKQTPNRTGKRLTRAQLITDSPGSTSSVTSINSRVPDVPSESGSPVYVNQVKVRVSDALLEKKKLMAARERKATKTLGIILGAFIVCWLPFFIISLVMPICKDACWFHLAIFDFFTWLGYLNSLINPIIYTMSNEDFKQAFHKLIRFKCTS
T5 sequence (P28221 whole entry): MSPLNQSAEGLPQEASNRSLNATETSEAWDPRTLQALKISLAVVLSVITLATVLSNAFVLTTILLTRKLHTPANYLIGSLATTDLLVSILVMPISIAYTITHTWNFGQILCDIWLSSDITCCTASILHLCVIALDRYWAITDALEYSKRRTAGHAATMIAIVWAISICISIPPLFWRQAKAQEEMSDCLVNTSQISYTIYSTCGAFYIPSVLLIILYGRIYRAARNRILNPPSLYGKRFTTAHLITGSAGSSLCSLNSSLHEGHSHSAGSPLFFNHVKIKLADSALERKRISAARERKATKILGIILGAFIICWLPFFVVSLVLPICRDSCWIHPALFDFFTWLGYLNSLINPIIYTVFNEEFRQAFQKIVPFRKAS
T1 sequence (P22002 whole entry, other chains not shown): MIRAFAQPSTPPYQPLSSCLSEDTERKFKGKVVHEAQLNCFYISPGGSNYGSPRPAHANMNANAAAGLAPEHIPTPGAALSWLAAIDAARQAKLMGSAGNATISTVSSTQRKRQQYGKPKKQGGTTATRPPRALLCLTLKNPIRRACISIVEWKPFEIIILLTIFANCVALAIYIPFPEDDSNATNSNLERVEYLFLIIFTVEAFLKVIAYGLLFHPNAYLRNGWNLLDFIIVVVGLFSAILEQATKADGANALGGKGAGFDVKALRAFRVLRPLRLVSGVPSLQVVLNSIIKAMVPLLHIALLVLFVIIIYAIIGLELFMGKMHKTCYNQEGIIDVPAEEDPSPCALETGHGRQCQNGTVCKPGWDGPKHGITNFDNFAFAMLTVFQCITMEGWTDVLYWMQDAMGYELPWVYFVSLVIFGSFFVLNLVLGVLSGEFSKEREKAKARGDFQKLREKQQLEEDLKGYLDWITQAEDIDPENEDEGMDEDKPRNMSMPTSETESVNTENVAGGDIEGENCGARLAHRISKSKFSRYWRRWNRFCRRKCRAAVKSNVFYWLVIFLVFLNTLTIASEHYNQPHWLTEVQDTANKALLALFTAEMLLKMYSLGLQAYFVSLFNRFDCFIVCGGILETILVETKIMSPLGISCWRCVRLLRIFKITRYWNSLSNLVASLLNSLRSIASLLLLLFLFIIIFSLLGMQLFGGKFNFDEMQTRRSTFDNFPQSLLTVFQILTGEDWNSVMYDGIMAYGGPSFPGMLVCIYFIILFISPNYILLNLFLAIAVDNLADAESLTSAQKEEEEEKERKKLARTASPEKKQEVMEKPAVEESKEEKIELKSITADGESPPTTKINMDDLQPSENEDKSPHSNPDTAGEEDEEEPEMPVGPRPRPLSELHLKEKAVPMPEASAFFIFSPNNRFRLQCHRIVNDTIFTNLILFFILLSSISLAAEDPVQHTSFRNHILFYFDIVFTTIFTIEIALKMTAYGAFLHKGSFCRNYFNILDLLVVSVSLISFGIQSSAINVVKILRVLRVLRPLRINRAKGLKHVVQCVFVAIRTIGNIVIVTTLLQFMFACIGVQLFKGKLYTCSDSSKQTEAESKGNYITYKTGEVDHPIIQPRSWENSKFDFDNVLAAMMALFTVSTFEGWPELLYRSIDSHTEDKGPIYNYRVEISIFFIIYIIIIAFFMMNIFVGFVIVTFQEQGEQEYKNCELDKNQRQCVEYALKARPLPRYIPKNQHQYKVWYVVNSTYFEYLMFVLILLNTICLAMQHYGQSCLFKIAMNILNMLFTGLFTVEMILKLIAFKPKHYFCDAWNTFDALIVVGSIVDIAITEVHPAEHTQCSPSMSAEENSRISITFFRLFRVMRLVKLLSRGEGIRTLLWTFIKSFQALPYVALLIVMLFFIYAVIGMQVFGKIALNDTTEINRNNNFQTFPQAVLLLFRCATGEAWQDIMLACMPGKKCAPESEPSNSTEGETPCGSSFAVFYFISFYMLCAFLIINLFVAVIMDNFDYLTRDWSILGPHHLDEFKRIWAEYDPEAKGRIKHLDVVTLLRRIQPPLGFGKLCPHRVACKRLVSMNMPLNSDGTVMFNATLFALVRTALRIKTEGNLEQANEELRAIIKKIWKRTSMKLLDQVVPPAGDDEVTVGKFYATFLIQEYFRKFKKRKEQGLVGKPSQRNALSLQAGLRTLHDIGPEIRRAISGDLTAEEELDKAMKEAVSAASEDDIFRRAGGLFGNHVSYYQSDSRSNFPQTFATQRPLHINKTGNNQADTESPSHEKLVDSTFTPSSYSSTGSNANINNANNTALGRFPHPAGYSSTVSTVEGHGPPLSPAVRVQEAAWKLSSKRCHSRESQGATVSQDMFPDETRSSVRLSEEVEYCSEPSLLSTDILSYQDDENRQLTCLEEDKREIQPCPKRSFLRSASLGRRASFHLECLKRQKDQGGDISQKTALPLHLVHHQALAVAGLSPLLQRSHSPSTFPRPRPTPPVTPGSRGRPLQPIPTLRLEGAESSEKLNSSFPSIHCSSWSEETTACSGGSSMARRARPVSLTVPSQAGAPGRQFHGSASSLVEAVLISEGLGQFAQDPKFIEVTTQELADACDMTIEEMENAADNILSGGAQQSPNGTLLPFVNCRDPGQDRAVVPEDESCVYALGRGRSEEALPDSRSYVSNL
T1 sequence (P54290 25-944 partner limits assumed, other chains not shown): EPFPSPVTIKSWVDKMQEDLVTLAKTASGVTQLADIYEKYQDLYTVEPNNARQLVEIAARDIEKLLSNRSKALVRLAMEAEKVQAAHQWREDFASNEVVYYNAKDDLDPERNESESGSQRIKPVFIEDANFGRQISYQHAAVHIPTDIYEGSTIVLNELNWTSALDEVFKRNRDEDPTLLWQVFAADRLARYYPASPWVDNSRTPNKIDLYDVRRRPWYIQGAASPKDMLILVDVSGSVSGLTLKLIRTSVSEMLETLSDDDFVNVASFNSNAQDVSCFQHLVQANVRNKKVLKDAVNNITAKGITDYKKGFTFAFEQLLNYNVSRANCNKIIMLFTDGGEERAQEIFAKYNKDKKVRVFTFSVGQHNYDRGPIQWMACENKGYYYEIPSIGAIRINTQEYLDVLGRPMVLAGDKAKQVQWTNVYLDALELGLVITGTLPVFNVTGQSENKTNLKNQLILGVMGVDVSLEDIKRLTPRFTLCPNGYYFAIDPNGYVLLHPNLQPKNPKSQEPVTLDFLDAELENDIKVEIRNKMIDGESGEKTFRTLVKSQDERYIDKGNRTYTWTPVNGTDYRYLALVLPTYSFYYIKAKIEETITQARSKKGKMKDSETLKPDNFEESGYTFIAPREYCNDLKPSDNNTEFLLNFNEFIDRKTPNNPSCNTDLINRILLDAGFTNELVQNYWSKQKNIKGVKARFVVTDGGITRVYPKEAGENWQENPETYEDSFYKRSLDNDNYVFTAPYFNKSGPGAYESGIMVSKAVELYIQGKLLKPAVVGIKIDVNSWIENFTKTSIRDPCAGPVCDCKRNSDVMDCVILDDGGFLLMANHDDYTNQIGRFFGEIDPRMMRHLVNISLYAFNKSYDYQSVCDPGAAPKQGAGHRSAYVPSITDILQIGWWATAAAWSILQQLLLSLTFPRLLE
T1 sequence (P54290 945-1091 partner limits assumed, other chains not shown): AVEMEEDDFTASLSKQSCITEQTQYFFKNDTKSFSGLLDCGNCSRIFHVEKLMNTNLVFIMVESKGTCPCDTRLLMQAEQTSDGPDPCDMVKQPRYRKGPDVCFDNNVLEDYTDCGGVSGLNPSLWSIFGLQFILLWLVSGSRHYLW

Row | Compound | Calcium Channel (pK1) [1, 9] | Ki ([2]; Table 2, cloned human receptor) | Human Prostate (pA) [3] | Alpha-2 Adrenergic a2b (pK1) ([4]; Table 2, cloned human receptor) | Ki ([8]; Table 2, cloned human receptor) | Histamine H1 (pK1) ([2]; Table 2, cloned human receptor) | Serotonin 5HT1Db (pK1) ([5]; Table 2, cloned human receptor) | Serotonin 5HT1Da (pK1) ([6]; Table 2, cloned human receptor) | Human Alpha-1 Adrenergic (pK1) a1C ([7]; Table 1, cloned human receptor) | Alpha-1 Adrenergic a1C (pK1) ([7]; Table 2, cloned human receptor) | Dopamine D2 (pK1) ([8]; Table 2, cloned human receptor) | Ki [1, 9] | Ki ([4]; Table 2, cloned human receptor) | further results
1 | COC(=O)C1=C(C)NC(C)=C(C(=O)OCCCN2CCC(c3ccccc3)(c3ccccc3)CC2)C1c1ccc([N+](=O)[O-])cc1.Cl (stereo not drawn) [Compound 8, 2,6-Dimethyl-4-(4-nitrophenyl)-1,4-dihydropyridine-3,5-dicarboxylic acid [3-(4,4-diphenylpiperidin-1-yl)propyl] ester methyl ester hydrochloride] | 6.87 | 214 nM | 7.46 | 6.12 | > 1000 nM |  |  |  |  |  |  |  |  | Ki [5]: > 10000 nM; Ki [6]: > 1000 nM; Alpha-1 Adrenergic a1C (pK1) [7]: 8.48; Human Alpha-1 Adrenergic (pK1) a1C [7]: 8.48
2 | COc1ccccc1N1CCN(CCCNc2c(C)c(=O)n(C)c(=O)n2C)CC1 [5-Methyl-Urapidil, 5-methylurapidil, reference compound] |  |  | 8.38 | 7.38 |  | 5.16 | 6.82 | 7.30 | 8.35 | 8.35 | <5.0 |  |  | 
3 | O=C(NC1CCN(CCc2c[nH]c3ccccc23)CC1)c1ccccc1 [Indoramin, reference compound] |  | 42.7 nM | 7.86 |  | > 10 nM |  |  |  |  |  |  | 29500 nM | 1910 nM | Ki [5, 10]: > 1000 nM; Ki [6, 11]: > 1000 nM; selectivity for the human α1C receptor relative to the other human α-adrenergic receptors ([7]; cloned human receptors): slightly selective
4 | COc1ccc(CCNCC2CCc3ccccc3C2)cc1 (stereo not drawn) [Compound 11, 2-[(4-Methoxyphenethyl)aminomethyl]-1,2,3,4-tetrahydronaphthalene] |  | 1820 nM | 6.64 |  | > 1000 nM |  |  |  |  | 8.36 |  | 6610 nM | 126 nM | Human Prostate (pA) ([3]; listed as SNAP 5036): low; Ki [5]: > 1000 nM; Ki [6]: > 1000 nM; Ki ([7]; Table 1, cloned human receptor, read-out: Human Alpha-1 Adrenergic (pK1) a1C (converted)): 4.37 nM; binding affinity at α1C receptors relative to binding affinities at other receptors ([7]; versus the other receptors of Table 2): greater than ten-fold higher
5 | C=Cc1sc2ccc(Cl)c3c2c1CN(C)CC3 [SKF-104856, 7-Chloro-2-ethenyl-3,4,5,6-tetrahydro-4-methylthieno[4,3,2-ef][3]benzazepine, reference compound] |  | 2570 nM | 7.66 |  | > 100 nM |  |  |  | 7.60 | 7.60 |  | 20900 nM | 3.24 nM | Ki [5, 10]: > 100 nM; Ki [6, 11]: > 100 nM
6 | 4-fluoro-4-(8-fluoro-1,3,4,5-tetrahydro-2H-pyrido[4,3-b]indol-2-yl)butyrophenone hydrochloride [Compound A-30360, reference compound] |  |  | 8.72 |  |  |  | <6.0 | <6.0 |  |  |  |  |  | Calcium Channel (pK1) [1]: 5.26; Histamine H1 (pK1) [2]: 6.03; Alpha-2 Adrenergic a2b (pK1) [4]: 6.37; Alpha-1 Adrenergic a1C (pK1) [7]: 8.52; Human Alpha-1 Adrenergic (pK1) a1C [7]: 8.52; Dopamine D2 (pK1) [8]: <9.0
7 | O=C(CCCN1CCC(NC(=O)c2ccccc2)CC1)c1ccc(Cl)cc1 [Compound 7] | 4.79 |  | 7.63 | 6.07 |  | 7.59 | <5.0 | <6.0 | 8.42 | 8.42 | <7.0 |  |  | 
8 | O=C(CCCN1CCC(NC(=O)c2ccccc2)CC1)c1ccccc1 [Compound 9] | 4.44 |  | 7.41 | 5.69 |  | 7.29 | <6.0 | <6.0 | 7.83 | 7.83 | <7.0 |  |  | 
